This note sets out measurements from publication PMC2817922, “Inhibitory Activity of Marine Sponge-Derived Natural Products against Parasitic Protozoa” (Marine Drugs, 2010).

Each structure is given as a SMILES string. In brackets after ≈: the same amount, converted by molar mass. Where two headings read alike, the source gives them in different places.

Series [1] relates to Trypanosoma brucei rhodesiense, STIB 900 strain. The series is described as follows: Activity against Trypanosoma brucei rhodesiense (Alamar Blue). It counts as cell-based. As to conditions: read-out: IC50 Trypanosoma b. rhodesiense. The procedure: Trypanosoma brucei rhodesiense, STIB 900 strain, and the standard drug, melarsoprol, were used for the assay. This stock was isolated in 1982 from a human patient in Tanzania and after several mouse passages cloned and adapted to axenic culture conditions. Minimum Essential Medium (50 μL) supplemented with 25 mM HEPES, 1g/L additional glucose, 1% MEM non-essential amino acids (100x), 0.2 mM 2-mercaptoethanol, 1 mM Na-pyruvate and 15% heat inactivated horse serum was added to each well of a 96-well microtiter plate. Serial drug dilutions of seven 3-fold dilution steps covering a range from 90 to 0.123 μg/mL were prepared. Then 10^4 bloodstream forms of T. b. rhodesiense STIB 900 in 50 μL was added to each well and the plate incubated at 37 °C under a 5% CO2 atmosphere for 72 h. 10 μL Alamar Blue (resazurin, 12.5 mg in 100 mL double-distilled water) was then added to each well and incubation continued for a further 2–4 h. Then, the plates were read with a Spectramax Gemini XS microplate fluorometer (Molecular Devices Cooperation, Sunnyvale, CA, USA) using an excitation wavelength of 536 nm and an emission wavelength of 588 nm. Data were analyzed using the microplate reader software Softmax Pro (Molecular Devices Cooperation, Sunnyvale, CA, USA).

Series [2] relates to T. cruzi Tulahuen strain C2C4. The series is described as follows: Activity against Trypanosoma cruzi (intracellular amastigotes in L6 cells, beta-galactosidase/CPRG). As to conditions: for IC50: Trypanosoma cruzi, TULAHUEN, Myoblast, in Rattus norvegicus, 96 h, intracellular amastigotes in L6 rat skeletal myoblasts, Tulahuen C2C4, 96 h. It counts as cell-based. The procedure: Rat skeletal myoblasts (L6 cells) were seeded in 96-well microtitre plates at 2000 cells/well in 100 μL RPMI 1640 medium with 10% FBS and 2 mM L-glutamine. After 24 h the medium was removed and replaced by 100 μL per well containing 5000 trypomastigote forms of T. cruzi Tulahuen strain C2C4 containing the β-galactosidase (Lac Z) gene. After 48 h, the medium was removed from the wells and replaced by 100 μL fresh medium with or without a serial drug dilution of seven 3-fold dilution steps covering a range from 90 to 0.123 μg/mL. After 96 h of incubation, the plates were inspected under an inverted microscope to assure growth of the controls and sterility. Then, the substrate CPRG/Nonidet (50 μL) was added to all wells. A color reaction developed within 2–6 h and could be read photometrically at 540 nm. Data were transferred into the graphic programme Softmax Pro (Molecular Devices), which calculated IC50 values. Benznidazole was the reference drug used.

The test system of series [3] is L. donovani strain MHOM/ET/67/L82. The series is described as follows: Activity against Leishmania donovani axenic amastigotes (Alamar Blue). It counts as cell-based. As to conditions: for IC50: Leishmania donovani, axenic amastigotes, MHOM/ET/67/L82, 72 h. The procedure:
Amastigotes of L. donovani strain MHOM/ET/67/L82 were grown in axenic culture at 37 °C in SM medium at pH 5.4 supplemented with 10% heat-inactivated fetal bovine serum under an atmosphere of 5% CO2 in air. One hundred microlitres of culture medium with 10^5 amastigotes from axenic culture with or without a serial drug dilution were seeded in 96-well microtitre plates. Serial drug dilutions covering a range from 90 to 0.123 μg/mL were prepared. After 72 h of incubation the plates were inspected under an inverted microscope to assure growth of the controls and sterile conditions. 10 μL of Alamar Blue (12.5 mg resazurin dissolved in 100 mL distilled water) were then added to each well and the plates incubated for another 2 h. Then, the plates were read with a Spectramax Gemini XS microplate fluorometer using an excitation wavelength of 536 nm and an emission wavelength of 588 nm. Data were analyzed using the software Softmax Pro (Molecular Devices Cooperation, Sunnyvale, CA, USA). Decrease of fluorescence (=inhibition) was expressed as percentage of the fluorescence of control cultures and plotted against the drug concentrations. From the sigmoidal inhibition curves the IC50 values were calculated. Miltefosine was used as reference drug.

Series [4] concerns P. falciparum K1 strain. As to the kind of experiment: Activity against Plasmodium falciparum ([3H]-hypoxanthine incorporation). As to conditions: for IC50: Plasmodium falciparum. The series is classed as cell-based. The procedure:
In vitro activity against erythrocytic stages of P. falciparum was determined by a modified [^3H]-hypoxanthine incorporation assay, using the chloroquine- and pyrimethamine-resistant K1 strain and the standard drug […]. Briefly, parasite cultures incubated in RPMI 1640 medium with 5% Albumax (without hypoxanthine) were exposed to serial drug dilutions in microtiter plates. After 48 h of incubation at 37°C in a reduced oxygen atmosphere, 0.5 μCi ^3H-hypoxanthine was added to each well. Cultures were incubated for a further 24 h before they were harvested onto glass-fiber filters and washed with distilled water. The radioactivity was counted using a Betaplate™ liquid scintillation counter (Wallac, Zurich). […] IC50 values were calculated from the sigmoidal inhibition curves using Microsoft Excel. Chloroquine was the reference drug used.

Series [5] can be described thus: Cytotoxicity against L6 cells (Alamar Blue). The series is classed as cell-based, rat. How it is done: Assays were performed in 96-well microtiter plates, each well containing 100 μL of RPMI 1640 medium supplemented with 1% L-glutamine (200 mM) and 10% fetal bovine serum, and 4 × 10^4 L6 cells (a […] cell line derived from rat skeletal myoblasts). Serial drug dilutions of seven 3-fold dilution steps covering a range from 90 to 0.123 μg/mL were prepared. After 72 h of incubation, the plates were inspected under an inverted microscope to assure growth of the controls and sterile conditions. Ten μL of Alamar Blue solution was then added to each well and the plates incubated for another 2 h. Then the plates were read with a Spectramax Gemini XS microplate fluorometer using an excitation wavelength of 536 nm and an emission wavelength of 588 nm. Data were analysed using the microplate reader software Softmax Pro. Podophyllotoxin was the reference drug used.

Where [6] appears, read: bloodstream forms, STIB 900, 72 h, average of at least two independent assays in duplicates.
The mark [7] stands for this setting: K1, erythrocytic stages, K1 strain resistant to chloroquine and pyrimethamine, read-out: IC50 Plasmodium falciparum.

Regarding `CC(=O)O[C@H]1C=C2C(=O)OCC2[C@]2(C)CCC3C(C)(C)CCC[C@]3(C)C12` (stereo partly drawn) [Compound 12, 11β-acetoxyspongi-12-en-16-one], the IC50 in series [1] (setting [6]) is 4.14 µg/mL (≈ 11.5 µM); in series [2], about 4 µg/mL (≈ 11.1 µM); in series [3], 0.75 µg/mL (≈ 2.08 µM); in series [4] (setting [7]) it was about 1 µg/mL (≈ 2.77 µM). Besides, in series [3] (for L. donovani), the “selectivity index (IC50 against L6 cells/IC50 against parasite)” value is 4.4. Further, the IC50 at 72 h in series [5] (rat) was 3.32 µg/mL (≈ 9.21 µM).
With `CC(C)=CCC/C(C)=C/CC/C(C)=C/CC/C(C)=C/Cc1cc(CC(=O)O)ccc1O` [Compound 8, 4-hydroxy-3-tetraprenylphenylacetic acid], the IC50 is 0.6 µg/mL (≈ 1.41 µM) in series [1] (setting [6]), over 90 µg/mL in series [2], over 90 µg/mL in series [3] and 3.3 µg/mL (≈ 7.77 µM) in series [4] (setting [7]). Also, in series [5] (rat), the half-inhibitory concentration (IC50) at 72 h is over 90 µg/mL.
As to `COC(=O)/C(C)=C/CC/C(=C/CC/C(C)=C/CC/C(C)=C/CCc1ccoc1)C(=O)O` [Compound 4, furospongin-4], the IC50 was 17.9 µg/mL (≈ 41.9 µM) in series [1] (setting [6]), over 90 µg/mL in series [2], over 90 µg/mL in series [3] and 7.51 µg/mL (≈ 17.5 µM) in series [4] (setting [7]). Besides, the IC50 at 72 h in series [5] (rat) was over 90 µg/mL.
`CCCCCCCCCCCCCCCCOP(=O)([O-])OCC[N+](C)(C)C` [miltefosine, reference compound] showed an IC50 in series [3] of 0.2 µg/mL (≈ 0.491 µM).
In the case of `CCN(CC)CCCC(C)Nc1ccnc2cc(Cl)ccc12` (centres unmarked) [chloroquine, reference compound], in series [4] (K1, read-out: IC50 Plasmodium falciparum), the IC50 is 0.056 µg/mL (≈ 0.175 µM).
Regarding `CC(=O)O[C@H]1C=C2C(=O)OCC2[C@@]2(C)C1[C@@]1(C)CCCC(C)(C)C1C[C@@H]2OC(C)=O` (some centres unmarked) [Compound 11, dorisenone D], the IC50 in series [1] (setting [6]) is 2.47 µg/mL (≈ 5.9 µM); in series [2] it was over 90 µg/mL; in series [3], over 90 µg/mL; in series [4] (setting [7]), 0.43 µg/mL (≈ 1.03 µM). Moreover, the “selectivity index (IC50 against L6 cells/IC50 against parasite)” value in series [4] (towards the malaria parasite (P. falciparum)) is given as over 9. In addition, in series [5] (rat), it took 3.93 µg/mL (≈ 9.39 µM) to reach half-maximal inhibition (IC50 at 72 h).
Regarding `Nc1nc(N)nc(Nc2ccc([As]3SCC(CO)S3)cc2)n1` (centres unmarked) [melarsoprol, reference compound], in series [1] (72 h), the IC50 amounted to 0.003 µg/mL.
Regarding `CC(C)=CCC/C(C)=C/CC/C(C)=C/CC/C=C(\C)CC/C=C(\C)CCC=C(C)C` [Compound 10, squalene], the IC50 in series [1] (setting [6]) is 15 µg/mL (≈ 36.6 µM); in series [2], over 90 µg/mL; in series [3] it was over 90 µg/mL; in series [4] (setting [7]) it was about 1 µg/mL (≈ 2.43 µM). The molecule further came in with an IC50 at 72 h in series [5] (rat) of 34.9 µg/mL (≈ 84.9 µM).
In the case of `CC(=O)O[C@H]1CC2[C@@]3(C)CCCC(C)(C)C3CC[C@@]2(C)C2CC=C3CO[C@@H](O)C3[C@]21C` (stereo partly drawn) [Compound 13, 12-epi-deoxoscalarin], the IC50 in series [1] (setting [6]) is 55.2 µg/mL (≈ 128 µM); in series [2], 40.4 µg/mL (≈ 93.9 µM); in series [3], over 90 µg/mL; in series [4] (setting [7]), 7.48 µg/mL (≈ 17.4 µM). This molecule came in with an IC50 at 72 h in series [5] (rat) of 60.3 µg/mL (≈ 140 µM).
Take `CC(C)=CCC/C(C)=C/CC/C(C)=C/CC/C(C)=C/CCc1ccoc1` [Compound 1, furospinulosin-1]: the IC50 was 27.4 µg/mL (≈ 77.4 µM) in series [1] (setting [6]), over 90 µg/mL in series [2], 14.2 µg/mL (≈ 40 µM) in series [3] and 11.2 µg/mL (≈ 31.5 µM) in series [4] (setting [7]). The IC50 at 72 h in series [5] (rat) was over 90 µg/mL.
Turning to `C/C(=C\CCc1ccoc1)C[C@@H](O)C[C@@H](C)CCCc1ccoc1` [Compound 3, furospongin-1], the 50% inhibitory concentration (IC50) in series [1] (setting [6]) came to 13.9 µg/mL (≈ 42.2 µM); in series [2] it was 17.5 µg/mL (≈ 52.9 µM); in series [3], 4.8 µg/mL (≈ 14.5 µM); in series [4] (setting [7]), 14 µg/mL (≈ 42.4 µM). In series [5] (rat), this molecule yielded an IC50 at 72 h of 27.4 µg/mL (≈ 83.1 µM).
Take `CC(C)=CCC/C(C)=C/CC/C(C)=C/CC/C(C)=C/CC/C(C)=C/CCc1ccoc1` [Compound 2, furospinulosin-2]: the IC50 was 16.2 µg/mL (≈ 38.2 µM) in series [1] (setting [6]), over 90 µg/mL in series [2], over 90 µg/mL in series [3] and 3.51 µg/mL (≈ 8.3 µM) in series [4] (setting [7]). Also, the IC50 at 72 h in series [5] (rat) was determined as 34 µg/mL (≈ 80.4 µM).
As to `COc1cc([C@@H]2c3cc4c(cc3[C@H](O)[C@H]3COC(=O)[C@H]23)OCO4)cc(OC)c1OC` [podophyllotoxin, reference compound], the IC50 at 72 h in series [5] (L6 cells (rat skeletal myoblasts), 72 h, read-out: IC50 Cytotoxicity) was found to be 0.004 µg/mL (≈ 0.00965 µM).
As for `CC(C)=CCC/C(C)=C/CC/C(C)=C/CC/C(C)=C/CC/C(C)=C/CC/C(C)=C/CCC1(C)C=Cc2cc(O)ccc2O1` (centres unmarked) [Compound 6, 2-(hexaprenylmethyl)-2-methylchromenol], the IC50 was 41.4 µg/mL (≈ 70.8 µM) in series [1] (setting [6]), over 90 µg/mL in series [2], 15.9 µg/mL (≈ 27.2 µM) in series [3] and over 20 µg/mL in series [4] (setting [7]). Besides, in series [5] (rat), the IC50 at 72 h is over 90 µg/mL.
Turning to `CC(C)=CCC/C(C)=C/CC/C(C)=C/CC/C(C)=C/CC/C(C)=C/CC/C(C)=C/CC/C(C)=C/CC/C(C)=C/Cc1cc(C(=O)O)ccc1O` [Compound 7, 4-hydroxy-3-octaprenylbenzoic acid], the IC50 in series [1] (setting [6]) was 13.1 µg/mL (≈ 19.2 µM); in series [2] it was over 90 µg/mL; in series [3] it was 5.6 µg/mL (≈ 8.2 µM); in series [4] (setting [7]), about 1 µg/mL (≈ 1.46 µM). This molecule also yielded an IC50 at 72 h in series [5] (rat) of 86.5 µg/mL (≈ 127 µM).
The molecule `O=C(Cn1ccnc1[N+](=O)[O-])NCc1ccccc1` [benznidazole, reference compound] yielded an IC50 in series [2] of 0.359 µg/mL (≈ 1.38 µM).
On to `OCCc1c[nH]c2ccccc12` [Compound 14, tryptophol], for which the IC50 in series [1] (setting [6]) is 5.89 µg/mL (≈ 36.5 µM); in series [2], 49.4 µg/mL (≈ 306 µM); in series [3], 9.6 µg/mL (≈ 59.6 µM); in series [4] (setting [7]), 5.08 µg/mL (≈ 31.5 µM). In addition, the “fold less active against T. cruzi than against T. b. rhodesiense” value in series [2] (ratio of IC50 values) is 8 fold. In series [5] (rat), this molecule registered an IC50 at 72 h of 63.5 µg/mL (≈ 394 µM).
